What all share (format): biochemical, horseradish
The target in experiment [1] is T1, HRP (Armoracia rusticana, UniProt P00433).
T1 sequence (P00433 31-338): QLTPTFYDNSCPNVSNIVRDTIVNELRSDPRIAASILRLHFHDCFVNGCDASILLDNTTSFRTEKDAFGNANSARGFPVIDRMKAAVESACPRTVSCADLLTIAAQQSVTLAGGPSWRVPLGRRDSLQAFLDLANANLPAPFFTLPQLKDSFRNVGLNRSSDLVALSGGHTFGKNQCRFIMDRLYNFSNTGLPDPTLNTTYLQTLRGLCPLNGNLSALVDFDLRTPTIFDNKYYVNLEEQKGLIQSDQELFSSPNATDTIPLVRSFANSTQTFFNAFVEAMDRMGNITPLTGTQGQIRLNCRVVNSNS
Briefly: Fluorescent detection sensitivity of HRP (microtiter plate fluorometer, FIG. 3). To be noted: 0.05 mM substrate in acidic formulation. As for the experimental part:
FIG. 3 is a graph showing the linearity of detection of HRP using fluorogenic substrates performed according to the methods of the present invention. Solutions containing 0.05 mM substrate 1 or 4, 0.1 mM 4-phenylphenol, 0.5 mM urea peroxide, 1 mM EDTA, 0.025% TWEEN 20 in 10 mM acetate buffer, pH 5 and a solution of 0.05 mM substrate 2, 0.1 mM 4-phenylphenol, 0.5 mM urea peroxide, 1 mM EDTA, 0.025% TWEEN 20 in 10 mM in 10 mM tris, pH 8 were reacted with the indicated quantities of HRP. After a reaction period of 15-20 min, fluorescence intensity was measured at the maximum. The term Intensity-Background refers to the fluorescence intensity in relative light units in the presence of HRP corrected for background fluorescence (B) in the absence of HRP. […]
Fluorescence detection limits were obtained on a Labsystems Fluoroskan Ascent microtiter plate fluorometer using an excitation bandpass filter (380 nm) and an emission bandpass filter (465 or 530 nm). […] The strips were then read on the Fluoroskan Ascent with the 380 nm-530 nm filter set.
(§1) HRP was serially diluted in type 1 water and 10 μl of diluted HRP was pipetted into each well. […] The strips were then read on the Fluoroskan Ascent with the 380 nm-465 nm filter set.
as §1

The target of experiment [2] is T1, HRP. Briefly: Fluorescence signal/background measurements in the presence of HRP. To be noted: HRP 13.8 fmol, t=15 min vs t=0. As for the experimental part: Three mL of a solution of each substrate in either the acidic or basic formulation described in Example 12 were pipetted into a cuvette. HRP (13.8 fmol, 4.6×10^−12M) was added and mixed thoroughly. The increase in fluorescence at the maximum was recorded after 15 min for each substrate. Signal-background values were calculated by comparing the fluorescence intensities at t=0 minutes and t=15 minutes.

In experiment [3] the target is T1, HRP. Briefly: Evaluation of substrates: fluorescence spectra of the product formed by reaction with HRP. The settings on record: 0.05 mM substrate, HRP 13.8 fmol. As for the experimental part: Enhanced reagent formulations containing each of Compounds 1-13 were prepared in either the Basic Formulation or the Acidic Formulation described below.
Fluorescence spectra were obtained on a Jobin Yvon/SPEX FluoroMax-3 spectrofluorometer with the excitation and emission slits set at 1.0 nm bandpass. UV Fluorimeter cuvettes (3.5 mL capacity, Perfector Scientific) were used.
Each of Compounds 1-13 was tested for production of a fluorescent product by reaction with HRP followed by spectrofluorometric analysis. A representative procedure using Compound 1 is described below. Essentially the same procedure was used for the other compounds.
Three mL of a 0.05 mM solution of ethyl N-methylacridan 9-carboxylate (Compound 1) in the acidic formulation were pipetted into a cuvette. Excitation (λem=524 nm) and emission (λex=[…]) spectra were recorded. HRP (13.8 fmol, 4.6×10^−12M) was added and mixed thoroughly. The increase in fluorescence at 524 nm was recorded over 15 min. Excitation (λem=524 nm) and emission (λex=357 nm) spectra were recorded again.

Experiment [4] addresses T1, HRP. Briefly: Sequential fluorescence spectra and kinetics of fluorescent product formation with HRP. From the text: FIG. 1 is a graph showing a series of sequential fluorescence spectra obtained from a reaction solution containing Compound 10 and HRP. The spectra correspond to the fluorescence of the acridinium product. For comparison, the fluorescence spectrum of an independently prepared sample of N-methylacridinium triflate is shown.
FIG. 2 is a graph showing the time course of the generation of fluorescent product from the reaction described in FIG. 1. The product is monitored by excitation at 357 nm and detecting fluorescence emission at 495 nm.
FIG. 4 is a graph showing the a series of sequential fluorescence spectra obtained from a reaction solution containing compound 12 and HRP. The spectra reveal the formation of the acridinium ester intermediate and N-methylacridone product.
Three mL of a 0.05 mM solution of N-methylacridan in the acidic formulation were pipetted into a cuvette. HRP (13.8 fmol, 4.6×10^−12M) was added and mixed thoroughly. Emission spectra (excitation at 357 nm) were obtained at 4.5 minute intervals over 1.8 h. The emission spectrum (excitation at 357 nm) of a 0.05 mM solution of N-methyl acridinium triflate in the acidic formulation is also shown for comparison with the emission spectra from the N-methylacridan/HRP solution.
FIG. 2 depicts the fluorescence intensity at 495 nm (with excitation at 357 nm) from the reaction solution of Example 16 as a function of time. Fluorescence intensity reached a maximum in 2 h and remained constant.
Three mL of a reagent containing 0.3 mM 2′,3′,6′-trifluorophenyl 10-methylacridan-9-carboxylate (compound 12), 0.1 mM 4-phenylphenol, 0.5 mM urea peroxide, 1 mM EDTA, and 0.025% TWEEN 20 in 0.01 M tris buffer, pH 8.0 were pipetted into a cuvette. HRP (13.8 fmol, 4.6×10^−12M) was added and mixed thoroughly. Emission spectra (excitation at 357 nm) were obtained at 4.5 minute intervals over 1.8 h.

In experiment [5] the target is T1, HRP. Briefly: Fluorescent detection of HRP by acridinium ester end product formation. To be noted: for Fluorescence wavelength of the acridinium end product: reaction with HRP, tris pH 8.0. As for the experimental part:
Forty μL of a detection reagent consisting of 0.05 mM compound 14, 0.6 mM urea peroxide, 0.1 mM p-phenylphenol, 0.025% TWEEN 20, 1 mM EDTA in 0.01 M tris buffer, pH 8.0 was reacted with 1 μL of HRP (1.4×10^−16 mol) at room temperature. Acridinium ester end product formation was detected after 5 min and continued to increase over 1 h as detected by spectrophotometry and fluorescence at 500 nm. [drawing 12]

Where [6] appears, read: 0.05 mM substrate, tris pH 8.0, HRP 1.4×10^−16 mol, room temperature.

For the compound `CCOC(=O)C1c2ccccc2N(C)c2ccccc21` [Compound 1, ethyl N-methylacridan 9-carboxylate], the “Fluorescent detection sensitivity of HRP (in words)” value on HRP [1] is on record as “excellent sensitivity”. The “Fluorescent intensity in the presence of HRP (as S/B)” value (from here on “Fluorescent intensity in the presence”) on HRP [2] (pH 5 acidic formulation) is given as 29.5; on HRP [2] (pH 8 basic formulation), 11.0. Further, the “Fluorescent properties of acridan substrates (fluorescence emission maximum after reaction with HRP)” value (“Fluorescent properties” for short) on HRP [3] (pH 5 acidic formulation) and at HRP [3] (pH 8 basic formulation) was 524 nm each time.
As to `COc1ccc(C2c3ccccc3N(C)c3ccccc32)cc1` [Compound 3], the “Fluorescent intensity in the presence” value at HRP [2] (pH 5 acidic formulation) amounted to 1.4. The “Fluorescent properties” value at HRP [3] (pH 5 acidic formulation) and on HRP [3] (pH 8 basic formulation) was 484 nm throughout.
As for `Fc1ccc(N2c3ccccc3Cc3ccccc32)cc1` [Compound 4, N-(4-fluorophenyl)acridan], on HRP [1], the “Fluorescent detection sensitivity of HRP (in words)” value was “excellent sensitivity”. Also, the “Fluorescent intensity in the presence” value on HRP [2] (pH 5 acidic formulation) amounted to 3.9. For the same compound, the “Fluorescent properties” value at HRP [3] (pH 5 acidic formulation) is 497 nm; at HRP [3] (pH 8 basic formulation), 496 nm.
With `c1ccc(CN2c3ccccc3Cc3ccccc32)cc1` [Compound 5, N-benzylacridan], the “Fluorescent intensity in the presence” value at HRP [2] (pH 5 acidic formulation) is on record as 5.6. The “Fluorescent properties” value at HRP [3] (pH 5 acidic formulation) and at HRP [3] (pH 8 basic formulation) was 494 nm each time.
In the case of `COc1ccc2c(c1)N(c1ccccc1)c1ccccc1C2` [Compound 6], the “Fluorescent intensity in the presence” value at HRP [2] (pH 5 acidic formulation) is recorded as 3.6. For the same compound, the “Fluorescent properties” value on HRP [3] (pH 5 acidic formulation) was found to be 512 nm; on HRP [3] (pH 8 basic formulation), 511 nm.
With `CC1c2ccccc2N(C)c2ccccc21` [Compound 7], on HRP [2] (pH 5 acidic formulation), the “Fluorescent intensity in the presence” value came out at 15.8. The “Fluorescent properties” value at HRP [3] (pH 5 acidic formulation) is listed as 490 nm; at HRP [3] (pH 8 basic formulation) it was 488 nm.
Regarding `O=C(O)C1c2ccccc2N(Cc2ccccc2)c2ccccc21` [Compound 8, N-benzyl-acridan-9-carboxylic acid], at HRP [3] (pH 8 basic formulation), the “Fluorescent properties” value was determined as 493 nm.
Take `CN1c2ccccc2C(C(=O)O)c2ccccc21` [Compound 9]: the “Fluorescent intensity in the presence” value on HRP [2] (pH 8 basic formulation) was determined as 4.3. Further, the “Fluorescent properties” value on HRP [3] (pH 8 basic formulation) stood at 489 nm.
Regarding `CN1c2ccccc2Cc2ccccc21` [Compound 10, N-methylacridan], the “Time at which fluorescence intensity reached a maximum” value on HRP [4] (0.05 mM in acidic formulation, HRP 13.8 fmol, emission 495 nm, excitation 357 nm) was 2 h. At HRP [4] (0.05 mM in acidic formulation, HRP 13.8 fmol, excitation 357 nm, compared with N-methyl acridinium triflate), the “Product of the HRP reaction identified from emission spectra (in words)” value is listed as “enzymatic conversion of Compound 10 to the fluorescent acridinium compound”. The “Fluorescent properties” value at HRP [3] (pH 8 basic formulation) is listed as 490 nm.
With `c1ccc(N2c3ccccc3C(C3c4ccccc4N(c4ccccc4)c4ccccc43)c3ccccc32)cc1` [Compound 11], the results for the “Fluorescent intensity in the presence” value at HRP [2] (pH 5 acidic formulation) and at HRP [2] (pH 8 basic formulation) were 84.0 and 6.1, respectively. In addition, the “Fluorescent properties” value on HRP [3] (pH 5 acidic formulation) and on HRP [3] (pH 8 basic formulation) was 494 nm each time.
With `CN1c2ccccc2C(C(=O)Oc2c(F)ccc(F)c2F)c2ccccc21` [Compound 12, 2′,3′,6′-trifluorophenyl 10-methylacridan-9-carboxylate, reference compound], the “Progression of the HRP reaction from emission spectra (in words)” value on HRP [4] (0.3 mM substrate, tris buffer pH 8.0, HRP 13.8 fmol, spectra every 4.5 min over 1.8 h) was “grow in of acridinium fluorescence and gradual predominance of N-methylacridone fluorescence”.
Consider `COc1ccc2c(c1)N(C)c1cccc(OC)c1C2C(=O)Oc1c(F)ccc(F)c1F` (stereo not shown) [Compound 14], for which, on HRP [5] (setting [6]), the “Period over which end product formation continued to increase” value came to 1 h and the “Time after which acridinium ester end product formation was detected” value is 5 min. In addition, the “Fluorescence wavelength of the acridinium end product” value on HRP [5] was found to be 500 nm.
In the case of `COc1ccc2c(c1)N(C)c1c(C)ccc(OC)c1C2C(=O)Oc1c(F)ccc(F)c1F` (stereo not shown) [Compound 15, 2,3,6-trifluoro-phenyl 1,6-dimethoxy-4,10-dimethylacridan-9-carboxylate], the “Result of the reaction with HRP (in words)” value at HRP [5] (experiment similar to that with compound 14) is on record as “fluorescent acridinium end product formation”. For the same compound, at HRP [5], the “Fluorescence wavelength of the acridinium end product” value worked out at 500 nm.
